Test results: patent publication US4764525A, “N-1H-tetrazol-5-ylbenzamides having use as antiallergy and antiinflammatory agents” (Warner-Lambert Company, priority 1987, dated 1988)

Tested on: human basophils
Test: HHB assay: inhibition of histamine release from human basophils
Assay type: cell-based
Settings: Anti-IgE stimulus, tested at 33 μM
From the text: The HHB assay quantitates active histamine release and its inhibition by drugs, from basophils of human blood. Thus, the assay provides evaluation of the compounds of formula I for treating the conditions or diseases as is the present invention. As described herein the assay includes modifications of the method described by R. P. Siroganian in "An Automated Continuous-Flow System for the Extraction and Fluorometric Analysis of Histamine," Anal. Biochem., 57, 383-394 (1974).
Seventy ml of blood are drawn from allergic donors (chosen on the basis of adequate histamine induced by a challenge), using standard venipuncture methods, into 10 ml Vacutainers with 0.08 ml/tube 15% EDTA in water as anticoagulant. The blood samples are placed briefly on a rotary mixer. All glassware contacting the blood is siliconized. The blood is aliquoted into three plastic 50 ml centrifuge tubes and the volume is noted. Hespan (hydroxy ethyl starch), 0.5 ml per 1.0 ml of blood, is added. The tubes are inverted several times to mix and are left undisturbed at room temperature until a sharp separation is observed between the settled red cells and the leukocyte and platelet-rich plasma. This usually occurs within 35-45 minutes.
The plasma fraction is pipetted off and placed into two clean plastic 50 ml centrifuge tubes. The tubes are centrifuged for 12 minutes at 4° C. in a a 100 ml volumetric flask and 0.5 ml DMSO is added. […] If the compound is in solution, distilled water is used to bring it up to 100 ml total volume. If the drug is not in solution, 0.2 ml 1N NaOH (or HCl) is added, and then distilled water is added to yield 100 ml total solution. Five ml of the stock solution is diluted (1:2) with 5 ml of two times concentrated HACM buffer to yield the stock working concentration of 150 μM. When added to the cells and stimulus, a final test concentration of 100 μM drug results (400 μl drug, 100 μcells and 100 μchallenge agent or vehicle). Further dilutions are made with HACM buffer for 33, 10, 3.3, 1.0 μM, etc.
Short ragweed and house dust extracts (Greer Laboratories, Inc.) are supplied as aqueous extracts in stock concentrations of 40,000 and 10,000 protein nitrogen units per milliliter (PNU/ml), respectively. Aqueous solutions of anti-IgE antisera (rabbit-raised antibody) are purchased from Dako via Accurate Chemicals. The tripeptide f-met-leu-phe (fmlp) from Vega Biochemicals is used. The aqueous solutions of ragweed, house dust, and anti-IgE are diluted 1:2 with two times concentrated HACM and then further diluted with HACM to yield final stock concentrations of 6000 PNU/ml for ragweed and house dust, and a 1:50 dilution for the anti-IgE antisera. […]

COc1ccc(C(=O)Nc2nnn[nH]2)c(OC(C)C)c1 [Example 1, 4-Methoxy-2-(1-methylethoxy)-N-1H-tetrazol-5-ylbenzamide]
inhibition at 33 µM: 41%

COc1ccc(C(=O)Nc2nnn[nH]2)c(OC(C)C)c1Br [Example 2, 3-Bromo-4-methoxy-2-(1-methylethoxy)-N-1H-tetrazol-5-ylbenzamide]
inhibition at 33 µM: 60%

COc1cc(OC(C)C)c(C(=O)Nc2nnn[nH]2)cc1Br [Example 3, 5-Bromo-4-methoxy-2-(1-methylethoxy)-N-1H-tetrazol-5-ylbenzamide]
inhibition at 33 µM: 28%

COc1ccc(C(=O)Nc2nnn[nH]2)c(OC(C)C)c1I [Example 4, 3-Iodo-4-methoxy-2-(1-methylethoxy)-N-1H-tetrazol-5-ylbenzamide]
inhibition at 33 µM: 73%
